For data set [1], the system named is adjuvant arthritis. The experiment in a line: chronic adjuvant arthritis test in rats (Table I). In kind it is in vivo, male Charles River Lewis rats. The note with it: for change in vivo at 95 µmol/kg / change in vivo at 3 µmol/kg: Rattus norvegicus, 552 h; for change in vivo at 3 µmol/kg: oral 3 μMol/Kg. The method, then: That the compounds of this invention are effective anti-arthritic agents can be seen from the results obtained when these compounds are administered to rats in accordance with the chronic adjuvant arthritis test system disclosed in Billingham and Davies "Handbook of Experimental Pharmacology" (editors J.R. Vane and S.H. Ferreira) Vol. 50/II, pg. 108-144, Springer-Verlag, Berlin, 1979).
In this procedure, adjuvant arthritis was induced by the subplantar injection on day o of 0.05 ml of adjuvant [a suspension of heat-killed, dessicated Mycobacterium butyricum, 0.5% (w/v), in heavy mineral oil containing 0.2% digitonin] into the right hind paw of male Charles River Lewis rats (120-140g) that were housed individually and given food and water ad lib. paw volumes (both hind paws) were measured immediately after injection of the adjuvant. paw Volumes were also measured, to follow the development of inflammation-induced swelling in the arthritic paws, at intervals of 3 to 7 days by immersion of the paw to the level of the lateral malleolus in a mercury plethysmograph.
Drugs were administered once a day (starting on the day of adjuvant injection) by […] using Tween 80 (polyoxyethylene sorbitan mono-oleate) at a dose of 0.25 ml/100 g body Weight as the vehicle. Arthritic control rats received daily doses of the vehicle only. On day 23-25, the rats were sacrificed, plasma collected and plasma fibrinogen levels determined (ammonium sulfate turbidimetric method) as described by Exner et al., Amer. J. Clin Path, 71:521-527 (1979). Anti-inflammatory activity of the test drugs were determined by comparing the extent of paw swelling (paw volume on a particular day, i.e. day four to day twenty-five, minus the paw volume on day 0) in drug-treated arthritic rats with the extent of paw swelling in the vehicle-treated arthritic rats. Drug induced decreases in the level of plasma fibrinogen. an acute phase protein that is elevated in the plasma of rats with adjuvant-induced arthritis, were also used to quantitate the anti-inflammatory activity.

Data set [2] deals with delayed hypersensitivity to methylated bovine serum albumin (MBSA). Briefly: MBSA delayed hypersensitivity test (Table II).
Protocol: The dose volumes used were 5 ml.kg^-1 for rats and 10 ml.kg^-1 for mice. Controls were dosed with the appropriate volume of arachis oil vehicle.
Animals -- Male and female MFI mice substrain E33. Initial weight approximately 25 gm.
Materials -- Methylated bovine serum albumin (MBSA) (Sigma) Freunds complete adjuvant (Difco)
Method -- Groups of 10 mice were sensitized (day 0) by injecting intradermally at two abdominal. sites 0.05 ml. of a water in oil emulsion of MBSA and Freunds complete adjuvant. On day 9 the mice were challenged by injecting 20 l of a 1% MBSA solution to one paw and 20 l of water into the contralateral paw. Paw volumes were measured 24 hours later by mercury displacement plethysmography. The means percentage increase in paw volume of the MBSA-challenged paw compared with the water challenged paw was calculated for each treatment group. Dosing with vehicle and retinold commenced on day 0 and finished on day 9.
Data set [3] has as its system 4 hr carrageenan pleurisy. Briefly: 4 hr carrageenan pleurisy, non-immune inflammation (Table V). The class given is in vivo, female Alderley Park Strain 1 rats. Conditions: 10 days. The method, then: Animals -- Female Alderley Park Strain 1 rats weighing 170-205 g. at the start of the experiment were used.
Materials -- Lambda -carrageenan. Prepared as a solution in saline and sterilized by autoclaving.
Method -- Compound A was administered orally to groups of 8 rats once daily for 10 days at doses of 10, 30 and 100 mg.kg^-1. Control animals received the vehicle. One hour after the last dose the animals were anesthetised with methohexitone (Brietal, 50 mg.kg-1) and 0.2 ml of 1% lambda carrageenan was injected into the pleural cavity. Four hours later the animals were killed with an overdose of pentobarbitone (Sagatal), the pleural exudate was collected and the pleural cavity was washed out with 2 ml of phosphate-buffered saline (PB$-A, Oxoid). The exudate volume was recorded and cell counts were determined using an automatic cell counter (Coulter). Differential cell counts were performed on exudate smears stained with Giemsa stain in order to determine separately the numbers of polymorphonuclear leucocytes (PMN) and mononuclear cells (MN).
Immediately after recovery of the pleural exudates the tibiae of the animals were excised and their breaking strains were determined.
The body weights of the animals were recorded daily. Statistical analyses were performed using Student's two-tailed t test.
In the following table the dose is in mg per kg per day.

Data set [4] deals with type II collagen arthritis. Briefly: established type II collagen arthritis (Table IV). Conditions: 100 mg.kg^-1 p.o.; male and female rats. In kind it is in vivo, male and female Alderley Park Strain 1 rats.
Protocol: In all tests, Compound A and the other retinoids tested concurrently were formulated in arachis oil containing 0.05% propylgallate as anti-oxidant. The dose volumes used were 5 ml.kg^-1 for rats and 10 ml.kg^-1 for mice. Controls were dosed with the appropriate volume of arachis oil vehicle.
Animals -- Male and female Alderley Park Strain 1 rats.
Materials -- Type 2 collagen (prepared from bovine nasal septum cartilage), Freunds incomplete adjuvant (Difco).
Method -- Rats were sensitized to type 2 collagen by injecting them intradermally with 1 ml. of a water in oil emulsion consisting of equal parts of a 1 mg.ml^-1 solution of type 2 collagen in 0.45M NaCl, 0.02M Tris, PH 7.4 and Freunds incomplete adjuvant. Rats developing arthritis were allocated on day 15 post sensitization to a control arachis oil treated group (6 male, 4 female) or to the Compound A treated group (6 male, 5 female). Hind paw volume measurements were taken to ensure even distribution of rats between groups. An overnight collection of urine was made on days 15/16 and dosing commenced on day 16. […] Compound A was dosed at 100 mg.kg^-1 p.o. On days 19/20 a second overnight collection of urine was made. […] On day 20 a second hind paw measurement was taken. Rats were then anaesthetised with sodium pentobarbitone, bled, killed and X-rays taken of hind and forepaws. Rats were dosed on days 16-19 inclusive (4 doses).
The test system of data set [5] is adjuvant arthritis in the rat. Briefly: developing adjuvant arthritis in the rat (Table III). In kind it is in vivo, AHH/R female rats (PVG derived). Conditions: 15 mg.kg^-1 p.o. The method, then:
Animals--AHH/R Female rats (PVG derived with an initial weight range of 110 to 140 g. were used.
Materials--Adjuvant for injection. An homogenized suspension of heat killed M. tuberculosis (Human strains C, DT and PN), 5 mg.Ml^-1 in liquid Paraffin was Prepared.
Method Rats were randomly split into groups of five and adjuvant arthritis was induced by the sub-plantar injection of 0.1 ml of adjuvant susPension into the right hind paw of each rat. Test compounds were administered by intubation each morning commencing the day of adjuvant injection. Two groups of control rats were dosed with the vehicle as was a group of three normal rats included for comparative purposes. Dosing was carried out daily until the end of the test on day 15 except for the first weekend (days 5 & 6). Treatment groups are shown in Table III and include etretinate as standard retinoid.
Measurements of right hind paw volume were made initially and on days 2 and 4 after and adjufant injection (primary phase). Right and left hind paw volume were then measured on day 8 and every two or three days until the end of the experiment on day 15 (secondary phase). At this time the mobility of each ankle joint and the
incidence and severity of secondary lesions on nose, ears, forepaws, left hind paw and tail were also assessed in terms of degrees of flexion possible and by using an arbitrary scoring system, respectively.
The time course curves for the injected paws were integrated from days 0 to 4 to reflect primary swelling and from days 8 to 15 (secondary swelling). The secondary swelling in the non-injected paw was integrated similarly from days 8 to 15. Calculations were carried out using a specific computer program which computed mean ± se for each integrated area. The significance of differences from controls was determined by Student s t test (2 tailed) and percentage reductions from control areas were calculated. Percentage improvements in joint mobility and percentage reductions in lesion score were also determined. In the latter case the Wilcoxon rank sum test (2 tailed) was used to express the difference from the control score using raw data. Mean body weight change in each group was recorded.

Where two headings read alike, the source gives them in different places.

Consider `CCCCCCCCCOc1ccc(OC)cc1/C=C/C(C)=C/C=C/C(C)=C/C(=O)O`, for which, in data set [1] (oral 75 μMol/Kg), the “Body Weight Gain” value is “+27 g”.
Take `CCCCCCCCNc1ccccc1/C=C/C(C)=C/C=C/C(C)=C/C(=O)OCC`: the “Body Weight Gain” value in data set [1] (oral 75 μMol/Kg) is given as “+24 g”.
The same measure, in the same setting: the result for `CCCCCCCCCOc1cccc(Cl)c1/C=C/C(C)=C/C=C/C(C)=C/C(=O)O` reads “+35 g”.
Turning to `CC(/C=C/c1ccccc1OCCCCCCCCO)=C\C=C\C(C)=C\C(=O)O`, the change in vivo at 95 µmol/kg in data set [1] (oral 95 μMol/Kg, read-out: % Reduction in Paw Volume On day 23, Left) was -49%. In addition, the change in vivo at 95 µmol/kg in data set [1] (oral 95 μMol/Kg, read-out: % Reduction in Paw Volume On day 23, Right) is -37%. In addition, in data set [1] (oral 95 μMol/Kg), the “Body Weight Gain” value is given as “+27 g” and the “Plasma fibrinogen % change (reduction)” value was -35%.
Turning to `CCCCCCCCCOc1cccc(F)c1/C=C/C(C)=C/C=C/C(C)=C/C(=O)O`, in data set [1] (oral 75 μMol/Kg), the “Body Weight Gain” value is “+46 g”.
Consider `CCCCCCCCCOc1ccccc1/C=C/C(C)=C/C=C/C(C)=C/C(=O)O` [Compound A, All(E)-9-[2-(nonyloxy)phenyl]-3,7-dimethyl-2,4,6,8-nonatetraenoic acid], for which the Mean body weight is given as -0.2 g in data set [2] (10 mg.kg^-1 oral, female (F)); 3.3 g in data set [2] (10 mg.kg^-1 oral, male (M)); 0.5 g in data set [2] (30 mg.kg^-1 oral, female (F)); 2.8 g in data set [2] (30 mg.kg^-1 oral, male (M)); -0.2 g in data set [2] (100 mg.kg^-1 oral, female (F)); 3.3 g in data set [2] (100 mg.kg^-1 oral, male (M)). In addition, the “Tibial Breaking Strain (Right + Left) % change” value is recorded as -3.4% in data set [3] (10 mg/kg/day p.o.), “+1.5%” in data set [3] (30 mg/kg/day p.o.) and -0.3% in data set [3] (100 mg/kg/day p.o.). For the same molecule, the “Tibial Breaking Strain (Right + Left) Mean” value was 6.5 kg in data set [3] (10 mg/kg/day p.o.), 6.8 kg in data set [3] (30 mg/kg/day p.o.) and 6.7 kg in data set [3] (100 mg/kg/day p.o.). Besides, the “weight during treatment (in words)” value in data set [4] was “Both male and female rats lost weight”.
In the case of `CCOC(=O)/C=C(C)/C=C/C=C(C)/C=C/c1c(C)cc(OC)c(C)c1C` [Etretinate, etretinate], in data set [5], the “Joint Mobility (% INC)” value amounted to 50% and the “Lesion Score (% RDN)” value amounted to 56%. For the same molecule, in data set [5] (days 8-15), the “% reduction of paw swelling, Secondary (left)” value came to 30% and the “% reduction of paw swelling, Secondary (right)” value is recorded as 67%. Moreover, the “% (cf. arachis oil control)” value in data set [2] (10 mg.kg^-1 oral, 10 doses) turned out to be 46%. Besides, the Mean body weight in data set [2] (10 mg.kg^-1 oral, female (F)) is listed as -2.0 g. In data set [2] (10 mg.kg^-1 oral, male (M)), this molecule gave a Mean body weight of -0.8 g.
Turning to `COc1ccc2c(c1)c(CC(=O)O)c(C)n2C(=O)c1ccc(Cl)cc1` [Indomethacin, reference compound], the change in vivo at 3 µmol/kg in data set [1] (read-out: % Reduction in Paw Volume On day 23, Left) was -67%; in data set [1] (read-out: % Reduction in Paw Volume On day 23, Right), -66%.
Consider `CCCCCCCCCOc1ccccc1/C=C/C(C)=C/C=C/C(C)=C/C(=O)O` [drawing 6], for which, in data set [1] (oral 76 μMol/Kg), the “Body Weight Gain” value is listed as “+27 g”.
With `CC1=C(/C=C/C(C)=C/C=C/C(C)=C\C(=O)O)C(C)(C)CCC1` [reference compound], in data set [1] (oral 60 μMol/Kg), the “Body Weight Gain” value is listed as -7 g.

These data come from patent US4883614A, “Phenyl substituted-2,4,6,8-nonatetraenoic acid” (Hoffman-La Roche Inc., priority 1986, dated 1989).
